Several values for one entry are separate records, joined by “and”; a condition that tells them apart may be missing. Identical values can stand only once.
Experiment: Accelerated and long term stability study of TTI-101 (Batch A, Batch B): HPLC assay, purity, impurities and water content after storage at 5° C., 25° C./60% RH, 30° C./65% RH or 40° C./75% RH
Format: physicochemical
Method: Exemplary HPLC conditions: diluent was 0.1% trifluoroacetic acid (TFA) in acetonitrile, Mobile Phase A was 0.05% TFA in water, and Mobile Phase B was 0.05% TFA in acetonitrile, column (Agilent, Eclipse XDB-C18, 3.0×100 mm, particle size 1.8 μm), flow (0.425 mL/min), and detector (280 nm diode array).
Batch A was prepared analogously using Method 3 as described in Example 1. Batch B was prepared according to Method 5 as described in Example 1.
Samples of TTI-101 were stored at 5° C., 25° C./60% RH, 30° C./65% RH, or 40° C./75% RH. TTI-101 was stored in an LDPE bag enclosed with a Nylon cable tie and then transferred to another LDPE bag and enclosed with a Nylon cable tie. The enclosure was put into an HDPE bottle and closed with a polyethylene-lined polypropylene cap. The samples were stored under the above-identified conditions.
The samples were analyzed using HPLC with the exemplary conditions identified above. Relative retention time (RRT) for Compound 5 was about 0.83, Compound 4 was about 1.05-1.06, Compound 6 was about 1.15-1.17, and compound of formula (IV) was about 0.99.
• NA not applicable • NQ ≥0.02% and <0.05% • Avg average • Cmpd compound • — no peak • M month • RRT relative retention time

[1] = Storage 25° C./60% RH, 6 M, Prep P1-P2
[2] = Storage 25° C./60% RH, 6 M, Prep P1-P2, listed as Batch B
[3] = Storage 25° C./60% RH, 9 M, Avg
[4] = Storage 25° C./60% RH, 9 M, Prep P1-P2
[5] = Storage 25° C./60% RH, 9 M, Prep P1-P2, listed as Batch B
[6] = Storage 40° C./75% RH, 0 M, Avg
[7] = Storage 40° C./75% RH, 0 M, Prep P1-P5
[8] = Storage 40° C./75% RH, 0 M, Prep P1-P5, listed as Batch B
[9] = Storage 40° C./75% RH, 1 M, Avg
[10] = Storage 40° C./75% RH, 1 M, Prep P1-P2
[11] = Storage 40° C./75% RH, 3 M, Avg
[12] = Storage 40° C./75% RH, 3 M, Prep P1-P2
[13] = Storage 40° C./75% RH, 3 M, Prep P1-P2, listed as Batch B
[14] = Storage 40° C./75% RH, 6 M, Avg
[15] = Storage 40° C./75% RH, 6 M, Prep P1-P2
[16] = Storage 40° C./75% RH, 6 M, Prep P1-P2, listed as Batch B

Impurity RRT 0.84 [1]: NQ (≥0.02% and <0.05%)
Impurity RRT 0.87 [1]: NQ (≥0.02% and <0.05%)
Impurity RRT 1.05 [1]: NQ (≥0.02% and <0.05%)
Impurity RRT 1.06 (Cmpd 4) [1]: NQ (≥0.02% and <0.05%)
Impurity RRT 1.39 [1]: NQ (≥0.02% and <0.05%)
Water Content [1]: <0.04%
Assay [2]: 99.0% and 98.5%
Impurity RRT 1.17 (Cmp 6) [2]: 0.23 area % and 0.25 area %
Purity [2]: 99.6% and 99.5%
Assay [3]: 99.0%
Impurities Total [3]: 0.4 area %
Impurity RRT 0.84 [3]: NQ (≥0.02% and <0.05%)
Impurity RRT 0.87 [3]: NQ (≥0.02% and <0.05%)
Impurity RRT 0.99 [3]: 0.12 area %
Impurity RRT 1.02 [3]: 0.06 area %
Impurity RRT 1.16 (Cmp 6) [3]: 0.18 area %
Impurity RRT 1.39 [3]: NQ (≥0.02% and <0.05%)
Purity [3]: 99.5%
Water Content [3]: 0.1%
Impurities Total [4]: 0.4 area %
Impurity RRT 0.84 [4]: NQ (≥0.02% and <0.05%)
Impurity RRT 0.87 [4]: NQ (≥0.02% and <0.05%)
Impurity RRT 1.02 [4]: 0.06 area %
Impurity RRT 1.16 (Cmp 6) [4]: 0.18 area %
Impurity RRT 1.39 [4]: NQ (≥0.02% and <0.05%)
Water Content [4]: 0.1%
Assay [5]: 99.7% and 98.2%
Impurity RRT 0.99 [5]: 0.12 area % and 0.13 area %
Purity [5]: 99.6% and 99.5%
Assay [6]: 99.4%
Impurities Total [6]: 0.1 area %
Impurity RRT 0.61 [6]: 0.05 area %
Impurity RRT 0.86 [6]: NQ (≥0.02% and <0.05%)
Impurity RRT 0.88 [6]: NQ (≥0.02% and <0.05%)
Impurity RRT 0.99 [6]: NQ (≥0.02% and <0.05%)
Impurity RRT 1.16 (Cmp 6) [6]: 0.07 area %
Purity [6]: 99.8%
Water Content [6]: 0.1%
Water Content (Storage 40° C./75% RH, 0 M, Prep P1-P2): 0.1%
Impurities Total [7]: 0.1 area %
Impurity RRT 0.86 [7]: NQ (≥0.02% and <0.05%)
Impurity RRT 0.99 [7]: NQ (≥0.02% and <0.05%)
Purity [7]: 99.8%
Impurity RRT 1.16 (Cmp 6) [8]: 0.08 area % and 0.07 area %
Assay [9]: 99.2%
Impurities Total [9]: 0.6 area %
Impurity RRT 0.80 [9]: NQ (≥0.02% and <0.05%)
Impurity RRT 0.84 [9]: NQ (≥0.02% and <0.05%)
Impurity RRT 0.87 [9]: NQ (≥0.02% and <0.05%)
Impurity RRT 0.99 [9]: 0.14 area %
Impurity RRT 1.02 [9]: 0.06 area %
Impurity RRT 1.05 [9]: NQ (≥0.02% and <0.05%)
Impurity RRT 1.06 (Cmpd 4) [9]: NQ (≥0.02% and <0.05%)
Impurity RRT 1.17 (Cmp 6) [9]: 0.38 area %
Impurity RRT 1.39 [9]: 0.05 area %
Purity [9]: 99.3%
Water Content [9]: 0.1%
Impurities Total [10]: 0.6 area %
Impurity RRT 0.80 [10]: NQ (≥0.02% and <0.05%)
Impurity RRT 0.84 [10]: NQ (≥0.02% and <0.05%)
Impurity RRT 0.87 [10]: NQ (≥0.02% and <0.05%)
Impurity RRT 0.99 [10]: 0.14 area %
Impurity RRT 1.02 [10]: 0.06 area %
Impurity RRT 1.05 [10]: NQ (≥0.02% and <0.05%)
Impurity RRT 1.06 (Cmpd 4) [10]: NQ (≥0.02% and <0.05%)
Impurity RRT 1.17 (Cmp 6) [10]: 0.38 area %
Impurity RRT 1.39 [10]: 0.05 area %
Purity [10]: 99.3%
Water Content [10]: 0.1%
Assay (Storage 40° C./75% RH, 1 M, Prep P1-P2, listed as Batch B): 99.1% and 99.4%
Assay [11]: 98.7%
Impurities Total [11]: 1.0 area %
Impurity RRT 0.38 [11]: NQ (≥0.02% and <0.05%)
Impurity RRT 0.80 [11]: NQ (≥0.02% and <0.05%)
Impurity RRT 0.84 [11]: NQ (≥0.02% and <0.05%)
Impurity RRT 0.87 [11]: NQ (≥0.02% and <0.05%)
Impurity RRT 0.99 [11]: 0.24 area %
Impurity RRT 1.02 [11]: 0.19 area %
Impurity RRT 1.06 (Cmpd 4) [11]: NQ (≥0.02% and <0.05%)
Impurity RRT 1.17 (Cmp 6) [11]: 0.37 area %
Impurity RRT 1.39 [11]: 0.16 area %
Purity [11]: 98.9%
Water Content [11]: 0.04%
Impurity RRT 0.38 [12]: NQ (≥0.02% and <0.05%)
Impurity RRT 0.80 [12]: NQ (≥0.02% and <0.05%)
Impurity RRT 0.84 [12]: NQ (≥0.02% and <0.05%)
Impurity RRT 0.87 [12]: NQ (≥0.02% and <0.05%)
Impurity RRT 0.99 [12]: 0.24 area %
Impurity RRT 1.02 [12]: 0.19 area %
Impurity RRT 1.39 [12]: 0.16 area %
Purity [12]: 98.9%
Assay [13]: 98.5% and 99.0%
Impurities Total [13]: 1.0 area % and 0.9 area %
Impurity RRT 1.17 (Cmp 6) [13]: 0.39 area % and 0.35 area %
Water Content [13]: <0.04% and 0.04%
Assay [14]: 98.4%
Impurities Total [14]: 1.0 area %
Impurity RRT 0.39 [14]: NQ (≥0.02% and <0.05%)
Impurity RRT 0.80 [14]: NQ (≥0.02% and <0.05%)
Impurity RRT 0.84 [14]: NQ (≥0.02% and <0.05%)
Impurity RRT 0.87 [14]: NQ (≥0.02% and <0.05%)
Impurity RRT 0.99 [14]: NQ (≥0.02% and <0.05%)
Impurity RRT 1.02 [14]: 0.34 area %
Impurity RRT 1.06 (Cmpd 4) [14]: NQ (≥0.02% and <0.05%)
Impurity RRT 1.17 (Cmp 6) [14]: 0.30 area %
Impurity RRT 1.27 [14]: NQ (≥0.02% and <0.05%)
Impurity RRT 1.39 [14]: 0.34 area %
Purity [14]: 98.9%
Water Content [14]: <0.04%
Impurities Total [15]: 1.0 area %
Impurity RRT 0.39 [15]: NQ (≥0.02% and <0.05%)
Impurity RRT 0.80 [15]: NQ (≥0.02% and <0.05%)
Impurity RRT 0.84 [15]: NQ (≥0.02% and <0.05%)
Impurity RRT 0.87 [15]: NQ (≥0.02% and <0.05%)
Impurity RRT 0.99 [15]: NQ (≥0.02% and <0.05%)
Impurity RRT 1.02 [15]: 0.34 area %
Impurity RRT 1.06 (Cmpd 4) [15]: NQ (≥0.02% and <0.05%)
Impurity RRT 1.39 [15]: 0.34 area %
Water Content [15]: <0.04%
Assay [16]: 98.6% and 98.2%
Impurity RRT 1.17 (Cmp 6) [16]: 0.31 area % and 0.29 area %
Purity [16]: 98.8% and 98.9%
stability (over 24 months): excellent stability
SMILES: COc1ccc(S(=O)(=O)Nc2cc(-c3c(O)ccc4ccccc34)c(O)c3ccccc23)cc1 [TTI-101]
Assay [8]: 99.0% and 100.5% and 99.3% and 99.5% and 98.8%

— patent US20240033234A1, “THERAPEUTIC COMPOUNDS, FORMULATIONS, AND USE THEREOF” (Tvardi Therapeutics, Inc., priority 2022, published 2024)
